Data reported in patent publication US11878970B2, “Allosteric chromenone inhibitors of phosphoinositide 3-kinase (PI3K) for the treatment of disease” (Petra Pharma Corporation, priority 2021, dated 2024).

Key:
[1] = molecular target: T1, PI3K-α (PIK3CA) wild-type (WT), p110α/p85α complex (Homo sapiens, UniProt P42336); test: PI3K-alpha kinase (PIK3CA) biochemical activity, ADP-Glo, wild-type
T1 construct: Recombinant, catalytically active human full length PIK3KA Wild-type and H1047R mutant; 6×His (N); purchased EMD Millipore Sigma 14-602M
Excerpt: (§1) PI3K-Alpha Kinase (PIK3CA) Activity, Wild-Type and H1047R Mutant and Determining IC50 Values for Inhibitors
(§2) Recombinant, catalytically active human full length PIK3KA Wild-type and H1047R mutant were purchased as 1:1 complex of N-terminal 6×his tagged p110α (catalytic) and untagged p85α (regulatory subunit) from EMD Millipore Sigma (cat. no. 14-602M and 14-792M, respectively). PIP2diC8 (Avanti Polar Lipids Inc., cat. no. 850185) or Soy PI (Avanti Polar Lipids Inc., cat. No. 840044P) was used as lipid substrate. PIP2diC8 or PI lyophilized powder was dissolved in milliQ water to a concentration of 1 mM just before use. 10 mM stock compounds in DMSO were serially diluted 1:3 to generate a 10-point curve and plated using an acoustic liquid handler system (Echo 550 series instrument, Labcyte). A 10× intermediate compound plate (200 uM starting compound concentration and 10% DMSO) was prepared before starting the reaction. A typical reaction mixture (50 uL) comprised 40 mM HEPES buffer, pH 7.4, 25 mM MgCl2, 0.01% v/v triton-X-100, 1% v/v DMSO, 20 mM NaCl, 1-5 nM WT or H1047R PI3K protein, 20 uM ATP, and 50 uM PIP2diC8 or Soy PI. 1% DMSO buffer alone without test compound was employed as MAX control (full activity in the absence of any inhibitor), and no enzyme control was used to determine the level of background Adenosine 5′-diphosphate (ADP) (MIN control). First, Wild-type (WT) and H1047R mutant protein in kinase buffer with all components except ATP were incubated with or without compound at 27° C. for 1 h. After the pre-incubation, the reaction was initiated by the addition of 20 uL of 50 uM ATP (20 uM final concentration). The reaction was allowed to proceed until about 10% conversion of ATP (2 uM ADP) at 27° C. After that time, 5 uL of reaction was mixed with 5 uL of ADP-Kinase Glo Reagent (ADP-Glo Kinase assay kit, Promega cat. no. V9102) supplemented with MgCl2 10 mM to stop the reaction and deplete the remaining ATP for 40 min at room temperature. Then, 10 uL of Kinase Detection Reagent (ADP-Glo Kinase assay kit, Promega cat. no. V9102) was added to simultaneously convert ADP to ATP and allow the newly synthesized ATP to be measured using a luciferase/luciferin reaction. After 30 min at room temperature the light generated was measured using a luminometer (EnVision plate reader, Perkin Elmer). Process data through Genedata-Screener tool. Relative IC50 values are determined using luminescence units by calculating percent inhibition with respect to on-plate “MIN” and “MAX” controls. Data was analyzed using a 4-parameter nonlinear logistic equation (four-parameter logistic concentration-response curve): Y=bot+[(top−bot)/1+(x/IC50)slope] where Y=% inhibition, X=concentration yielding y % inhibition, Bottom=minimum value of y attained by curve, Top=maximum value of y attained by curve and Slope=steepness of curve at IC50. % Inh=[(median Max−x/median Max−median Min)]·100 IC50: concentration of compound that reduces a given response (ligand binding, enzyme response) by 50%. IC50 relative: concentration giving half the compound's maximum response.

[2] = molecular target: T2, PI3K-α (PIK3CA) H1047R mutant, p110α/p85α complex (Homo sapiens, UniProt P42336, H1047R); test: PI3K-alpha kinase (PIK3CA) biochemical activity, ADP-Glo, H1047R mutant
T2 construct: Recombinant, catalytically active human full length PIK3KA Wild-type and H1047R mutant; 6×His (N); purchased EMD Millipore Sigma 14-792M
Excerpt: as §1, §2

[3] = PIP2diC8 lipid substrate (footnote 1)

T2 sequence (P42336 whole entry H1047R): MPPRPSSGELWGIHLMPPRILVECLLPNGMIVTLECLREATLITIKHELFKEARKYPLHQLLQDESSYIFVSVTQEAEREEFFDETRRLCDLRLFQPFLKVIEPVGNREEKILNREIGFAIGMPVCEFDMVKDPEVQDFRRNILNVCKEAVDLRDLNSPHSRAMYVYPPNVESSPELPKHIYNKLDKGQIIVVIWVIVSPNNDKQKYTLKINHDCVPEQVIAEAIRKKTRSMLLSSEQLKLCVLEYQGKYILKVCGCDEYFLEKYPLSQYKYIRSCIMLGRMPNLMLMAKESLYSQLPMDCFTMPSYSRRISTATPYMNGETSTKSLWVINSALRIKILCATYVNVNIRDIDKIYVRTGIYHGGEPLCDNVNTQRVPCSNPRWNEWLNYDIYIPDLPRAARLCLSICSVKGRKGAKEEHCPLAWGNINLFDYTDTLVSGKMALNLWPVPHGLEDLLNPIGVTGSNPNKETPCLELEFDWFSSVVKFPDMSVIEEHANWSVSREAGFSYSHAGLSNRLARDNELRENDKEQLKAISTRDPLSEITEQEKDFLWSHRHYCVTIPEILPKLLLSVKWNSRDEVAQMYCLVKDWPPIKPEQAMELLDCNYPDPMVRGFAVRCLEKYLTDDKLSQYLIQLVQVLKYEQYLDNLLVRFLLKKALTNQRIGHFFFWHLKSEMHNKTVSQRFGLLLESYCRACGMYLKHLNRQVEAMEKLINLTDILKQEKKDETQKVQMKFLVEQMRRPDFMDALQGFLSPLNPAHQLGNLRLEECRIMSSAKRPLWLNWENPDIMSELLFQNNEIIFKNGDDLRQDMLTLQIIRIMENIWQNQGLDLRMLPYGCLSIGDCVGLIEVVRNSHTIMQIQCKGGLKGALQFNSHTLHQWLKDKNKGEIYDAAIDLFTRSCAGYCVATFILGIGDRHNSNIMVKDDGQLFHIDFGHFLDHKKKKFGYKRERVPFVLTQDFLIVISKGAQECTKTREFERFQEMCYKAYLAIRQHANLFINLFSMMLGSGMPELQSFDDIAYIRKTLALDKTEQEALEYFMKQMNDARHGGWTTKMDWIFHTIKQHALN
T2 sequence (P27986 whole entry partner): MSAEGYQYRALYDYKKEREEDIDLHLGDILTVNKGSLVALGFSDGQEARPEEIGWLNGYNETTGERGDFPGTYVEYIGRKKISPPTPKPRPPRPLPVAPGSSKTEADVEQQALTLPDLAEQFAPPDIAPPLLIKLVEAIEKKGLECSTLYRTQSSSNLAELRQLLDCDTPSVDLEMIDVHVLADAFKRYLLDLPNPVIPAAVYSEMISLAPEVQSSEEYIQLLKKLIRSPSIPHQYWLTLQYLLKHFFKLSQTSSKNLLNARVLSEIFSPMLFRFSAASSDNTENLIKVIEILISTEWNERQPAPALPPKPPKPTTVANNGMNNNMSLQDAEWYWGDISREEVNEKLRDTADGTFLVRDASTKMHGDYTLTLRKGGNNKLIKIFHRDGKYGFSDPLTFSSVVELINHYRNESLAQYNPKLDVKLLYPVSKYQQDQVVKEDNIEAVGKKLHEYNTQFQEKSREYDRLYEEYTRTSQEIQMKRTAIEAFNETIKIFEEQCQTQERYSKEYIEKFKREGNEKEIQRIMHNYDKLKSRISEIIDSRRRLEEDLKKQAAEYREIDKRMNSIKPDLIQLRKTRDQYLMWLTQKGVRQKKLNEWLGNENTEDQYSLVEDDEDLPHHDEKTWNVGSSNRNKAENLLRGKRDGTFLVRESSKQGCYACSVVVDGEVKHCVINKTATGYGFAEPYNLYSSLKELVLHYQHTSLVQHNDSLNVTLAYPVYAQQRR

Compound	IC50 ([1]; Soy PI lipid substrate)	IC50 ([2]; Soy PI lipid substrate)	IC50 [1, 3]	IC50 [2, 3]
COc1ccc2nc(-c3cc(=O)c4cc(C)cc(C(C)Nc5ccccc5C(=O)O)c4o3)cn2c1 (single isomer, unassigned) [Example 2, 2-[1-[2-(6-Methoxyimidazo[1,2-a]pyridin-2-yl)-6-methyl-4-oxo-chromen-8-yl]ethylamino]benzoic acid]	1000 to 5000 nM	500 to 1000 nM	–	–
Cc1cc(C(C)Nc2ccccc2C(=O)O)c2oc(-c3ccc4nc(C)cn4c3)cc(=O)c2c1 (single isomer, unassigned) [Example 17, 2-[1-[6-Methyl-2-(2-methylimidazo[1,2-a]pyridin-6-yl)-4-oxo-chromen-8-yl]ethylamino]benzoic acid]	1000 to 5000 nM	< 500 nM	–	–
Cc1cc(C(C)Nc2ccccc2C(=O)O)c2oc(-c3ccc4cc(C)[nH]c4n3)cc(=O)c2c1 (single isomer, unassigned) [Example 20, 2-[1-[6-Methyl-2-(2-methyl-1H-pyrrolo[2,3-b]pyridin-6-yl)-4-oxo-chromen-8-yl]ethylamino]benzoic acid]	1000 to 5000 nM	< 500 nM	–	–
Cc1cc(C(C)Nc2ccccc2C(=O)O)c2oc(-c3ccc4cc[nH]c4c3)cc(=O)c2c1 (single isomer, unassigned) [Example 21, 2-[1-[2-(1H-Indol-6-yl)-6-methyl-4-oxo-chromen-8-yl]ethylamino]benzoic acid]	500 to 1000 nM	< 500 nM	–	–
Cc1cc(C(C)Nc2ccccc2C(=O)O)c2oc(-c3nn(C)c4ccccc34)cc(=O)c2c1 (single isomer, unassigned) [Example 23, 2-[1-[6-Methyl-2-(1-methylindazol-3-yl)-4-oxo-chromen-8-yl]ethylamino]benzoic acid]	500 to 1000 nM	< 500 nM	–	–
Cc1cc(C(C)Nc2ccccc2C(=O)O)c2oc(-c3ccc4c(C)n[nH]c4c3)cc(=O)c2c1 (single isomer, unassigned) [Example 28, 2-[1-[6-Methyl-2-(3-methyl-1H-indazol-6-yl)-4-oxo-chromen-8-yl]ethylamino]benzoic acid]	1000 to 5000 nM	< 500 nM	–	–
Cc1cc(C(C)Nc2ccccc2C(=O)O)c2oc(-c3cnn4ccccc34)cc(=O)c2c1 (single isomer, unassigned) [Example 29, 2-[1-(6-Methyl-4-oxo-2-pyrazolo[1,5-a]pyridin-3-yl-chromen-8-yl)ethylamino]benzoic acid]	5000 to 10000 nM	< 500 nM	–	–
Cc1cc(C(C)Nc2ccccc2C(=O)O)c2oc(-c3ccc4c(c3)CN(C)C4=O)cc(=O)c2c1 (single isomer, unassigned) [Example 31, 2-[1-[6-Methyl-2-(2-methyl-1-oxo-isoindolin-5-yl)-4-oxo-chromen-8-yl]ethylamino]benzoic acid]	1000 to 5000 nM	< 500 nM	–	–
Cc1cc(C(C)Nc2ccccc2C(=O)O)c2oc(-c3ccc4nccn4n3)cc(=O)c2c1 (single isomer, unassigned) [Example 36, 2-[1-(2-Imidazo[1,2-b]pyridazin-6-yl-6-methyl-4-oxo-chromen-8-yl)ethylamino]benzoic acid]	1000 to 5000 nM	< 500 nM	–	–
Cc1cc(C(C)Nc2ccccc2C(=O)O)c2oc(-c3ccc4nc(C)cn4c3)cc(=O)c2c1 (single isomer, unassigned) [Example 38, 2-[1-[6-Methyl-2-(2-methylimidazo[1,2-a]pyridin-6-yl)-4-oxo-chromen-8-yl]ethylamino]benzoic acid]	1000 to 5000 nM	< 500 nM	–	–
Cc1cc(C(C)Nc2ccccc2C(=O)O)c2oc(-c3cc4ccncc4o3)cc(=O)c2c1 (single isomer, unassigned) [Example 39, 2-[1-(2-Furo[2,3-c]pyridin-2-yl-6-methyl-4-oxo-chromen-8-yl)ethylamino]benzoic acid]	1000 to 5000 nM	< 500 nM	–	–
Cc1cc(C(C)Nc2ccccc2C(=O)O)c2oc(-c3cnc4nn(C)cc4c3)cc(=O)c2c1 (single isomer, unassigned) [Example 41, 2-[1-[6-Methyl-2-(2-methylpyrazolo[3,4-b]pyridin-5-yl)-4-oxo-chromen-8-yl]ethylamino]benzoic acid]	5000 to 10000 nM	1000 to 5000 nM	–	–
Cc1cc(C(C)Nc2ccccc2C(=O)O)c2oc(-c3cnc4nn(C)cc4c3)cc(=O)c2c1 (single isomer, unassigned) [Example 42, 2-[1-[6-Methyl-2-(2-methylpyrazolo[3,4-b]pyridin-5-yl)-4-oxo-chromen-8-yl]ethylamino]benzoic acid]	1000 to 5000 nM	< 500 nM	–	–
Cc1cc(C(C)Nc2ccccc2C(=O)O)c2oc(-c3cnc4cn(C)nc4c3)cc(=O)c2c1 (single isomer, unassigned) [Example 43, 2-[1-[6-Methyl-2-(2-methylpyrazolo[4,3-b]pyridin-6-yl)-4-oxo-chromen-8-yl]ethylamino]benzoic acid]	> 10000 nM	> 10000 nM	–	–
Cc1cc(C(C)Nc2ccccc2C(=O)O)c2oc(-c3cnc4cn(C)nc4c3)cc(=O)c2c1 (single isomer, unassigned) [Example 44, 2-[1-[6-Methyl-2-(2-methylpyrazolo[4,3-b]pyridin-6-yl)-4-oxo-chromen-8-yl]ethylamino]benzoic acid]	5000 to 10000 nM	1000 to 5000 nM	–	–
Cc1cc(C(C)Nc2ccccc2C(=O)O)c2oc(-c3cccc4c3OCO4)cc(=O)c2c1 (single isomer, unassigned) [Example 45, 2-[1-[2-(1,3-Benzodioxol-4-yl)-6-methyl-4-oxo-chromen-8-yl]ethylamino]benzoic acid]	< 500 nM	< 500 nM	–	–
Cc1cc(C(C)Nc2ccccc2C(=O)O)c2oc(-c3ccc4c(c3)OCO4)cc(=O)c2c1 (single isomer, unassigned) [Example 46, 2-[1-[2-(1,3-Benzodioxol-5-yl)-6-methyl-4-oxo-chromen-8-yl]ethylamino]benzoic acid]	–	–	< 500 nM	< 500 nM
Cc1cc(C(C)Nc2ccccc2C(=O)O)c2oc(-c3ccc4cnncc4c3)cc(=O)c2c1 (single isomer, unassigned) [Example 47, 2-[1-(6-Methyl-4-oxo-2-phthalazin-6-yl-chromen-8-yl)ethylamino]benzoic acid]	1000 to 5000 nM	< 500 nM	–	–
Cc1cc(C(C)Nc2ccccc2C(=O)O)c2oc(-n3ncc4ncccc43)cc(=O)c2c1 (single isomer, unassigned) [Example 48, 2-[1-(6-Methyl-4-oxo-2-pyrazolo[4,3-b]pyridin-1-yl-chromen-8-yl)ethylamino]benzoic acid]	< 500 nM	< 500 nM	–	–
Cc1cc(C(C)Nc2ccccc2C(=O)O)c2oc(-n3cc4ccccc4n3)cc(=O)c2c1 (single isomer, unassigned) [Example 50, 2-[1-(2-Indazol-2-yl-6-methyl-4-oxo-chromen-8-yl)ethylamino]benzoic acid]	1000 to 5000 nM	< 500 nM	–	–
Cc1cc(C(C)Nc2ccccc2C(=O)O)c2oc(-c3ccc4c(cnn4C)n3)cc(=O)c2c1 (single isomer, unassigned) [Example 53, 2-[1-[6-Methyl-2-(1-methylpyrazolo[4,3-b]pyridin-5-yl)-4-oxo-chromen-8-yl]ethylamino]benzoic acid]	1000 to 5000 nM	< 500 nM	–	–
Cc1cn2cc(-c3oc4c(C(C)Nc5ccccc5C(=O)O)cc(F)cc4c(=O)c3C)ccc2n1 (single isomer, unassigned) [Example 56, 2-[1-[6-Fluoro-3-methyl-2-(2-methylimidazo[1,2-a]pyridin-6-yl)-4-oxo-chromen-8-yl]ethylamino]benzoic acid]	> 10000 nM	> 10000 nM	–	–
